Patent US20250179066A1, “ZWITTERIONIC ANTIBACTERIAL COMPOUNDS” (Hoffmann-La Roche Inc., priority 2022, published 2025)
Where a name gives a salt, the structure may show the parent alone.

Each molecule was assayed on Acinetobacter baumannii ATCC17961 (assay: Antimicrobial susceptibility testing: 90% growth inhibitory concentration (IC90) determination). Settings: Acinetobacter baumannii, ATCC17961, 16 h, 90% growth inhibitory concentration against Acinetobacter baumannii ATCC17961, Iso-Sensitest broth, OD 600 nm over 16 h; read-out: ATCC 17961 IC90.
Type: cell-based
In short: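 OD600 monitored each minute over 16 h at 35±2° C for bacteria (~5×10^5 CFU/mL final) in Iso-Sensitest medium with 10-point twofold compound series (e.g. 10-0.0195 μM final). Concentration giving 90% growth inhibition in log phase reported as IC90.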
`Cn1c(-c2cn(-c3ccc(NCCO)cn3)nc2C(F)(F)F)cnc1C(=O)Nc1ccc(C(=O)N2CCN(C(=O)[C@H]3CC[N@+](CC(=O)O)(CC4CNC4)CC3)CC2)c(Cl)c1` [Example 38, cis-2-[1-(azetidin-3-ylmethyl)-4-[4-[2-chloro-4-[[5-[1-[5-(2-hydroxyethylamino)-2-pyridyl]-3-(trifluoromethyl)pyrazol-4-yl]-1-methyl-imidazole-2-carbonyl]amino]benzoyl]piperazine-1-carbonyl]piperidin-1-ium-1-yl]acetic acid; formate] was tested, and the IC90 was 0.43 µM. In the case of `Cn1c(-c2cn(-c3ccc4c(ccn4C)n3)nc2C(F)(F)F)cnc1C(=O)Nc1ccc(C(=O)N2CCN(C(=O)[C@H]3CC[N@+](CC(=O)O)(CC4CNC4)CC3)CC2)c(Cl)c1` [Example 39, cis-2-[1-(azetidin-3-ylmethyl)-4-[4-[2-chloro-4-[[1-methyl-5-[1-(1-methylpyrrolo[3,2-b]pyridin-5-yl)-3-(trifluoromethyl)pyrazol-4-yl]imidazole-2-carbonyl]amino]benzoyl]piperazine-1-carbonyl]piperidin-1-ium-1-yl]acetic acid. 1:1 2,2,2-trifluoroacetate], the IC90 is reported as 0.43 µM. `CC(C)Nc1ccc(-n2cc(-c3cnc(C(=O)Nc4ccc(C(=O)N5CCN(C(=O)C6CC[N+](CC(=O)O)(CC7CNC7)CC6)CC5)c(Cl)c4)n3C)c(C(F)(F)F)n2)nc1` (centres unmarked) [Example 40, 2-[1-(azetidin-3-ylmethyl)-4-[4-[2-chloro-4-[[5-[1-[5-(isopropylamino)-2-pyridyl]-3-(trifluoromethyl)pyrazol-4-yl]-1-methyl-imidazole-2-carbonyl]amino]benzoyl]piperazine-1-carbonyl]piperidin-1-ium-1-yl]acetic acid. 1:1 formate] gave an IC90 of 0.43 µM. `Cn1c(-c2cn(-c3ccc(Nc4ccccn4)cn3)nc2C(F)(F)F)cnc1C(=O)Nc1ccc(C(=O)N2CCN(C(=O)C3CC[N+](CC(=O)O)(CC4CNC4)CC3)CC2)c(Cl)c1` (centres unmarked) [Example 41, 2-[1-(azetidin-3-ylmethyl)-4-[4-[2-chloro-4-[[1-methyl-5-[1-[5-(2-pyridylamino)-2-pyridyl]-3-(trifluoromethyl)pyrazol-4-yl]imidazole-2-carbonyl]amino]benzoyl]piperazine-1-carbonyl]piperidin-1-ium-1-yl]acetic acid. 1:1 formate] showed an IC90 of 0.44 µM. With `Cn1c(-c2cn(-c3ccc4[nH]ncc4n3)nc2C(F)(F)F)cnc1C(=O)Nc1ccc(C(=O)N2CCN(C(=O)[C@H]3CC[N@+](CC(=O)O)(CC4CNC4)CC3)CC2)c(Cl)c1` [Example 42, cis-2-[1-(azetidin-3-ylmethyl)-4-[4-[2-chloro-4-[[1-methyl-5-[1-(1H-pyrazolo[4,3-b]pyridin-5-yl)-3-(trifluoromethyl)pyrazol-4-yl]imidazole-2-carbonyl]amino]benzoyl]piperazine-1-carbonyl]piperidin-1-ium-1-yl]acetic acid. 1:1 2,2,2-trifluoroacetate] the IC90 was 0.44 µM. Molecule `Cn1c(-c2cn(-c3nccs3)nc2C(F)(F)F)cnc1C(=O)Nc1ccc(C(=O)N2CCN(C(=O)C3CC[N+](CC(=O)O)(CC4CNC4)CC3)CC2)c(Cl)c1` (centres unmarked) [Example 43, 2-[1-(azetidin-3-ylmethyl)-4-[4-[2-chloro-4-[[1-methyl-5-[1-thiazol-2-yl-3-(trifluoromethyl)pyrazol-4-yl]imidazole-2-carbonyl]amino]benzoyl]piperazine-1-carbonyl]piperidin-1-ium-1-yl]acetic acid. 1:1 formate] has an IC90 of 0.46 µM. With `Cn1c(-c2cn(-c3ccc(NC4CC4)cn3)nc2C(F)(F)F)cnc1C(=O)Nc1ccc(C(=O)N2CCN(C(=O)C3CC[N+](CC(=O)O)(CC4CNC4)CC3)CC2)c(Cl)c1` (centres unmarked) [Example 44, 2-[1-(azetidin-3-ylmethyl)-4-[4-[2-chloro-4-[[5-[1-[5-(cyclopropylamino)-2-pyridyl]-3-(trifluoromethyl)pyrazol-4-yl]-1-methyl-imidazole-2-carbonyl]amino]benzoyl]piperazine-1-carbonyl]piperidin-1-ium-1-yl]acetic acid. 1:1 formate] the IC90 was 0.49 µM. `CN(C)c1ccc(-n2cc(-c3cnc(C(=O)Nc4ccc(C(=O)N5CCN(C(=O)C6CC[N+](CC(=O)O)(CC7CNC7)CC6)CC5)c(Cl)c4)n3C)c(C(F)(F)F)n2)nc1` (centres unmarked) [Example 45, 2-[1-(azetidin-3-ylmethyl)-4-[4-[2-chloro-4-[[5-[1-[5-(dimethylamino)-2-pyridyl]-3-(trifluoromethyl)pyrazol-4-yl]-1-methyl-imidazole-2-carbonyl]amino]benzoyl]piperazine-1-carbonyl]piperidin-1-ium-1-yl]acetic acid. 1:1 formate] was tested, and the IC90 was 0.5 µM. `CN(C)c1ccc(-n2cc(-c3cnc(C(=O)Nc4ccc(C(=O)N5CCN(C(=O)C6CC[N+](CC(=O)O)(CC7CNC7)CC6)CC5)c(Cl)c4)n3C)c(C(F)(F)F)n2)cc1` (centres unmarked) [Example 46, 2-[1-(azetidin-3-ylmethyl)-4-[4-[2-chloro-4-[[5-[1-[4-(dimethylamino)phenyl]-3-(trifluoromethyl)pyrazol-4-yl]-1-methyl-imidazole-2-carbonyl]amino]benzoyl]piperazine-1-carbonyl]piperidin-1-ium-1-yl]acetic acid. 1:1 formate] showed an IC90 of 0.5 µM. `Cn1c(-c2cn(-c3ccc(NC[C@H]4COCCN4)cn3)nc2C(F)(F)F)cnc1C(=O)Nc1ccc(C(=O)N2CCN(C(=O)C3CC[N+](CC(=O)O)(CC4CNC4)CC3)CC2)c(Cl)c1` (stereo partly drawn) [Example 47, 2-[1-(azetidin-3-ylmethyl)-4-[4-[2-chloro-4-[[1-methyl-5-[1-[5-[[(3S)-morpholin-3-yl]methylamino]-2-pyridyl]-3-(trifluoromethyl)pyrazol-4-yl]imidazole-2-carbonyl]amino]benzoyl]piperazine-1-carbonyl]piperidin-1-ium-1-yl]acetic acid. 1:1 2,2,2-trifluoroacetic acid. 1:1 2,2,2-trifluoroacetate] gave an IC90 of 0.5 µM. `Cn1c(-c2cn(-c3ccc(N)cn3)nc2C(F)(F)F)cnc1C(=O)Nc1ccc(C(=O)N2CCN(C(=O)[C@H]3CC[N@+](CCCN)(CC(=O)O)CC3)CC2)c(Cl)c1` [Example 48, trans-2-[1-(3-aminopropyl)-4-[4-[4-[[5-[1-(5-amino-2-pyridyl)-3-(trifluoromethyl)pyrazol-4-yl]-1-methyl-imidazole-2-carbonyl]amino]-2-chloro-benzoyl]piperazine-1-carbonyl]piperidin-1-ium-1-yl]acetic acid. 1:1 2,2,2-trifluoroacetate] gave an IC90 of 0.51 µM. `CN(C)c1ccc(-n2cc(-c3cnc(C(=O)Nc4ccc(C(=O)N5CCN(C(=O)C6CC[N+](CC(=O)O)(CC7CNC7)CC6)CC5)c(Cl)c4)n3C)c(C(F)(F)F)n2)cn1` (centres unmarked) [Example 49, 2-[1-(azetidin-3-ylmethyl)-4-[4-[2-chloro-4-[[5-[1-[6-(dimethylamino)-3-pyridyl]-3-(trifluoromethyl)pyrazol-4-yl]-1-methyl-imidazole-2-carbonyl]amino]benzoyl]piperazine-1-carbonyl]piperidin-1-ium-1-yl]acetic acid. 1:1 2,2,2-trifluoroacetate] was tested, and the IC90 was 0.52 µM. `Cn1c(-c2cn(-c3ccc(N)cn3)nc2C(F)(F)F)cnc1C(=O)Nc1ccc(C(=O)N2CCN(C(=O)CCC[N+](CC(=O)O)(CC3CNC3)CC3CNC3)CC2)c(Cl)c1` [Example 50, [4-[4-[4-[[5-[1-(5-amino-2-pyridyl)-3-(trifluoromethyl)pyrazol-4-yl]-1-methyl-imidazole-2-carbonyl]amino]-2-chloro-benzoyl]piperazino]-4-keto-butyl]-bis(azetidin-3-ylmethyl)-(carboxymethyl)ammonium. 1:1 2,2,2-trifluoroacetic acid. 1:1 2,2,2-trifluoroacetate] showed an IC90 of 0.52 µM. `Cn1c(-c2cn(-c3ccc(NCCCCCCN)cn3)nc2C(F)(F)F)cnc1C(=O)Nc1ccc(C(=O)N2CCN(C(=O)C3CC[N+](CC(=O)O)(CC4CNC4)CC3)CC2)c(Cl)c1` (centres unmarked) [Example 51, 2-[4-[4-[4-[[5-[1-[5-(6-aminohexylamino)-2-pyridyl]-3-(trifluoromethyl)pyrazol-4-yl]-1-methyl-imidazole-2-carbonyl]amino]-2-chloro-benzoyl]piperazine-1-carbonyl]-1-(azetidin-3-ylmethyl)piperidin-1-ium-1-yl]acetic acid. 1:1 2,2,2-trifluoroacetic acid. 1:1 2,2,2-trifluoroacetate] showed an IC90 of 0.52 µM. `CNc1ccnc(-n2cc(-c3cnc(C(=O)Nc4ccc(C(=O)N5CCN(C(=O)C6CC[N+](CC(=O)O)(CC7CNC7)CC6)CC5)c(Cl)c4)n3C)c(C(F)(F)F)n2)c1` (centres unmarked) [Example 52, 2-[1-(azetidin-3-ylmethyl)-4-[4-[2-chloro-4-[[1-methyl-5-[1-[4-(methylamino)-2-pyridyl]-3-(trifluoromethyl)pyrazol-4-yl]imidazole-2-carbonyl]amino]benzoyl]piperazine-1-carbonyl]piperidin-1-ium-1-yl]acetic acid. 1:1 2,2,2-trifluoroacetate] showed an IC90 of 0.53 µM. With `CN1CCN(c2ccc(-n3cc(-c4cnc(C(=O)Nc5ccc(C(=O)N6CCN(C(=O)C7CC[N+](CC(=O)O)(CC8CNC8)CC7)CC6)c(Cl)c5)n4C)c(C(F)(F)F)n3)nc2)CC1` (centres unmarked) [Example 53, 2-[1-(azetidin-3-ylmethyl)-4-[4-[2-chloro-4-[[1-methyl-5-[1-[5-(4-methylpiperazino)-2-pyridyl]-3-(trifluoromethyl)pyrazol-4-yl]imidazole-2-carbonyl]amino]benzoyl]piperazine-1-carbonyl]piperidin-1-ium-1-yl]acetic acid. 1:1 formate] the IC90 was 0.55 µM. For `Cn1c(-c2cn(-c3ccc(O)cn3)nc2C(F)(F)F)cnc1C(=O)Nc1ccc(C(=O)N2CCN(C(=O)C3CC[N+](CC(=O)O)(CC4CNC4)CC3)CC2)c(Cl)c1` (centres unmarked) [Example 54, 2-[1-(azetidin-3-ylmethyl)-4-[4-[2-chloro-4-[[5-[1-(5-hydroxy-2-pyridyl)-3-(trifluoromethyl)pyrazol-4-yl]-1-methyl-imidazole-2-carbonyl]amino]benzoyl]piperazine-1-carbonyl]piperidin-1-ium-1-yl]acetic acid. 1:1 2,2,2-trifluoroacetate], the IC90 was 0.55 µM.
